Results taken from US20220133747A1, “ESTROGEN RECEPTOR INHIBITORS AND USES THEROF” (The Regents of the University of California, priority 2018, published 2022).
“Also recorded” adds a separate entry of the source.

Key:
[1] = system: T47D cells; assay: Cell proliferation assay, T47D; format: cell-based, human; details: 10 nM with 2 nM estradiol-17β, 48 hr
[2] = system: MCF-7 cells; assay: Cell proliferation assay, MCF-7 (MCF-7/PAR); format: cell-based, human; details: 10 nM with 2 nM estradiol-17β, 48 hr
[3] = system: MCF-7/HER2 cells; assay: Cell proliferation assay, MCF-7 with HER2-overexpression; format: cell-based, human; details: MCF-7/HER2, 10 nM with 2 nM estradiol-17β, 48 hr
[4] = system: 4T1 tumors; assay: 4T1 tumor progression in syngeneic BALB/c mice; format: in vivo; details: SERD128 50 mg/kg oral gavage, fulvestrant 5 mg/mouse subcutaneous once a week, anti-PD-L1 100 μg every third day, 10-12 days
Procedure: Ovariec-tomized 6-wk-old female BALC/c mice supplemented with E2 pellets (0.36 mg/60 day release pellet) were implanted SC with 2.5×10^5 4T1 cells. After tumors reached approx. 200 mm3, mice were randomized and treated with control vehicle (CON), 100 μg of anti-PD-L1 (antibody clone 10F.9G2, BioXCell) Q3 days (PD-L1), 50 mg/kg SERD128 by oral gavage (SERD128) or combined antibody+SERD (PD-L1+SERD128). Tumors were measured Q3 days, with tumor volume calculated as V=(W(2)×L)/2), with mean+SE (*P<0.05, **P<0.01 vs CON).
FIGS. 23A-23C show estrogen effects on ERα negative tumor growth in vitro and in vivo. […] Female 6-wk-old BALB/c mice, either ovariectomized (ovx) or sham-operated (intact), were inoculated s.c. with 2×10^5 4T1 TNBC cells. Tumor growth was then assessed every 3 days, with tumor volume calculated as V=(l×w×w)/2. ****P≤0.0001. […] 4T1 cells were grown in the presence (+E2) or absence (−E2) of estradiol-17β and increasing concentrations of SERD128 at 10 nM (128-10), 100 nM (128-100) or 1000 nM (128-1000). Cell proliferation was assessed using the Incucyte S3 Live-Cell Analysis system with pictures obtained every 4-6 hours. […] Ovariectomized 6-week-old female syngeneic BALB/c mice were primed with estradiol-17β slow-release pellets prior to tumor cell inoculation. After three days, 4T1 cells were injected in the 4th mammary fat pad (2×10^5 cells). After tumors reached ˜200 mm^3 mice were randomized and treated with control vehicle (CON), […] of anti-PD-L1 antibody every 3rd day (PD-L1 Ab), 50 mg/kg SERD128 via oral gavage (SERD128), and combinations of antibody and SERD128 (SERD128+PD-L1 Ab). Tumors were measured every 3 days, and tumor volume was calculated as V=(W(2)×L)/2). **P<0,01, ****P<0.0001 as compared to control group. n=11-12.
In further studies to determine the effects of antiestrogen treatment alone or in combination with anti-PD-L1 antibody on murine tumor progression in vivo, ovariectomized 6-week-old female syngeneic BALB/c mice were used (Jackson Laboratory). […] Tumors were measured every 3-4 days, and tumor volume was calculated as above. […]

[5] = system: MCF-7/TMR cells; assay: Cell proliferation assay, MCF-7 with tamoxifen resistance; format: cell-based, human; details: 10 nM with 2 nM estradiol-17β, 48 hr
[6] = clinic; cited from earlier work

SMILES	cell proliferation (% of estradiol-treated controls) [1]	cell proliferation (% of estradiol-treated controls) [2]	cell proliferation (% of estradiol-treated controls) [3]	4T1 tumor progression (tumor volume) ([4]; 50 mg/kg)	4T1 tumor progression (tumor volume) ([4]; listed as S128)	cell proliferation (% of estradiol-treated controls) [5]	4T1 tumor progression (tumor volume) [4]	bioavailability [6]
C[C@]12C[C@H](Oc3ccc(N)c(C(F)(F)F)c3)[C@@H]3c4ccc(O)cc4CC[C@H]3[C@@H]1CC[C@@H]2O [SERD128, (8S,9S,11S,13S,14S,17S)-11-(4-Amino-3-(trifluoromethyl)phenoxy)-13-methyl-7,8,9,11,12,13,14,15,16,17-decahydro-6H-cyclopenta[a]phenanthrene-3,17-diol]	significantly blocked proliferation; also recorded: significantly inhibited	significantly blocked proliferation; also recorded: significantly inhibited; also recorded: antiproliferative action	significantly blocked proliferation; also recorded: antiproliferative action	inhibits breast cancer growth in vivo; also recorded: effective in inhibition of 4T1 tumor growth in vivo; also recorded: significant suppression of 4T1 tumor progression in vivo	elicits inhibition of 4T1 TNBC progression in vivo	significantly blocked proliferation; also recorded: antiproliferative action		
C[C@]12CC[C@@H]3c4ccc(O)cc4C[C@@H](CCCCCCCCC[S+]([O-])CCCC(F)(F)C(F)(F)F)[C@H]3[C@@H]1CC[C@@H]2O (some centres unmarked) [fulvestrant, reference compound]							effective in inhibition of 4T1 tumor growth in vivo	very low bioavailability
